# Patent US20240261236A1, “METHODS OF USING NMDA RECEPTOR ANTAGONISTS” (Seelos Therapeutics, Inc., priority 2021, published 2024)
# What was measured:
# [1] = test system: adults with major depressive disorder (MDD) who are at imminent risk of suicide; assay: MOAA/S sedation, Phase 2 Part 1
# [2] = test system: adults with major depressive disorder (MDD) who are at imminent risk of suicide; assay: S-STS CMCM total score, Phase 2 Part 1; type: in vivo, human; conditions: for S-STS CMCM score: 90 mg IN+SOC, 24 hours post-administration; for S-STS mean score: baseline 21.9
# Description: The S-STS CMCM (version 01/01/19) is a clinician-rated outcome measure which assesses SI/B on a standard 22-item scale, as well as multiple patient and clinician-rated items. The first 16 items are rated on a Likert-type scale ranging from “not at all” (0 units) to “extremely” (4 units), where select scoring (i.e., 4 specific items are scored based on the highest score on 2 of those items) yields a total score ranging from 0 units to 52 units. The final 6 items are used only when the patient misses a visit and is unable to complete the scale; if that missed visit is due to attempted or completed suicide, the possible maximum score is 100. The CMCM also yields 5 different single-item global assessments: 1) subject-rated likelihood of a suicide attempt; 2) subject-rated treatment needed; 3) clinician global severity of suicidal impulses, thoughts, and behaviors; 4) clinician judgment of suicide risk at this time and level of management needed for suicidality; and 5) clinician judgment of subject's likelihood of making a suicide attempt or of dying by suicide in the next 7 days.
# The secondary endpoints are the change from baseline at 24 hours, as well as at Day 16, in the following: • (1) S-STS total score • (2) MADRS Total at Day 16 (only) • (3) Clinical Global Impression (CGI) of Severity for SI/B (CGIS-SI/B) and Change in SI/B (CGIC-SI/B) • (4) Patient Global Impression (PGI) of Severity for SI/B (PGIS-SI/B) and Change in SI/B (PGIC-SI/B • (5) S-STS Clinician-Rated Global Severity of Suicidal Impulses, Thoughts, and Behaviors • (6) S-STS Clinician judgment of subject's risk of a suicide attempt or death by suicide at this time • (7) S-STS Clinician judgment of subject's likelihood (risk) of making a suicide attempt or of dying by suicide in the next 7 days • (8) S-STS Subject-rated global severity of suicidal impulses, thoughts, and behavior • (9) S-STS Subject-rated treatment needed score • (10) MADRS item 10 response rate (response ≤3 units) • (11) MADRS Total response (total score ≥50% reduction from baseline) • (12) MADRS Total remission (total score ≤12 units)
# Subjects who were hospitalized due to an imminent risk of suicide were enrolled according to the inclusion criteria. The trial was initiated in the hospital and all subjects received standard of care (SOC) therapy for the duration of the study. Subjects were released from the hospital (approximately Day 7) once stabilized and continued the study in an outpatient manner. […] Following the conclusion of the treatment period, a 2-week safety follow-up was also conducted to determine maintenance of treatment efficacy and to monitor for any additional safety events. See, FIG. 26.
smiles,measurement,setting,value
"CNC1(c2ccccc2Cl)CCCCC1=O (racemic) [intranasal racemic ketamine, 1:1 mixture of the two enantiomers of ketamine: (R)-2-(2-chlorophenyl)-2-(methylamino)cyclohexanone and (S)-2-(2-chlorophenyl)-2-(methylamino)cyclohexanone]",MOAA/S score,"[1]; 90 mg IN+SOC, Subject 1, 15 minutes post-administration, pre-dose 5 units",4 units
same,MOAA/S score,"[1]; 90 mg IN+SOC, Subject 1, 30 minutes",5 units
same,MOAA/S score,"[1]; 90 mg IN+SOC, Subject 2, throughout the trial",5 units
same,sedation,"[1]; 90 mg IN+SOC, Subjects 1 and 2, in contrast to intranasal (S)-ketamine",little to no sedation
same,subjects with MOAA/S score of 5 units at all time-points,[1]; Day 1,5 of 7 subjects
same,MOAA/S score (no one had a score below),"[1]; Day 1, 7 subjects",≥ 4 units
same,S-STS CMCM score,"[2]; Subject 1, from 18 units, range 0-52",zero
same,S-STS CMCM score,"[2]; Subject 2, from 22 units",3 units
same,S-STS CMCM mean (SD) change from baseline,"[2]; 17 subjects enrolled, 24 hours post-dose",−20.6 (6.34)
same,S-STS CMCM mean (SD) change from baseline,"[2]; 17 subjects enrolled, Day 16",−20.9 (3.66)
same,S-STS: patients (1 patient) with 4 points within-patient change,[2]; Day 1,6%
same,S-STS: patients with >14 points within-patient change from baseline,[2]; Day 1,94%
same,S-STS mean score,[2]; Day 1,1.7
same,S-STS mean score,[2]; Day 16,0.0
same,S-STS mean score,[2]; Day 29,0.0
same,S-STS CMCM mean (SD) change from baseline,[2]; final follow-up on Day 29/30,−21.1 (3.71)
same,mean S-STS CMCM score,[2]; final follow-up on Day 29/30,0.0 (0.00)
